Active and inactive are the calls of the source. No cut-off for these calls is given here.
Assays:
Drosophila melanogaster = assay: Phototoxicity against Drosophila melanogaster larvae; type: functional, organism-based
[1] = Photoovicidal activity against Drosophila melanogaster egg pretreated 1 hr before UV light irradiation for 45 mins by paper disk method; type: ADME; conditions: 0.75 h
[2] = Ovicidal activity against Drosophila melanogaster egg by paper disk method; type: ADME
Saccharomyces cerevisiae = assay: Phototoxicity against Saccharomyces cerevisiae; type: functional, organism-based
Aedes aegypti = assay: Phototoxicity against Aedes aegypti larvae; type: functional, organism-based
Escherichia coli = assay: Phototoxicity against Escherichia coli B; type: functional, organism-based
[3] = Increase in ovicidal activity against Drosophila melanogaster egg incubated in dark by paper disk method; type: ADME
Cyberlindnera jadinii = assay: Phototoxicity against Candida utilis; type: functional, organism-based
[4] = Ratio of ID50 for Drosophila melanogaster egg to ID50 for Drosophila melanogaster egg irradiated with UV light for 45 mins; type: ADME

## C#Cc1ccc(-c2ccccc2)s1
Drosophila melanogaster
  Activity: Active
[1]
  LD50: 0.025 microg/cm2
[2]
  LD50: 4.6 microg/cm2
Saccharomyces cerevisiae
  Activity: Active
Aedes aegypti
  Activity: Active
Escherichia coli
  Activity: Active
[3]
  Activity: Not Active
Cyberlindnera jadinii
  Activity: Active
[4]
  selectivity ratio at 0.75 h: 200

## O=c1ccc2ccccc2o1 [COUMARIN]
[2]
  LD50: 23 microg/cm2

## CC#Cc1ccc(-c2ccccc2)s1
Drosophila melanogaster
  Activity: Active
[1]
  LD50: 0.013 microg/cm2
[2]
  LD50: 2.9 microg/cm2
Saccharomyces cerevisiae
  Activity: Active
Aedes aegypti
  Activity: Active
Escherichia coli
  Activity: Active
[3]
  Activity: Not Active
Cyberlindnera jadinii
  Activity: Active
[4]
  selectivity ratio at 0.75 h: 225

Source: ChEMBL document CHEMBL1145668, “The Effect of Ultraviolet Light on the Toxicity of Natural Products Toward the Eggs of Drosophila melanogaster” (J Nat Prod, 1983)
